US8889370B2, “Method of determining inhibitors of coagulation” (Siemens Healthcare Diagnostics Products GmbH, priority 2010, dated 2014)

Key:
thrombin = thrombin (Homo sapiens, UniProt P00734); parameters: binding constant for thrombin: unit not given here; conditions: cited from earlier work
F Xa [1] = molecular target: T1, F Xa (Homo sapiens, UniProt P00742); assay: LOCI chemiluminescence competition assay for F Xa inhibitors in standard human plasma, ligand B-r-G-R-H; type: binding; parameters: 10 μl of a reagent containing human F Xa (approx. 1000 IU/l); conditions: standard human plasma with increasing inhibitor concentrations, anti-F Xa antibody-coated Chemibeads, FIG. 9
Protocol: The signal-producing system used was the LOCI system according to example 4.
The Chemibeads used herein were additionally coated with a commercially available polyclonal antibody to F Xa. For this, the antibody was linked covalently to the latex particles in a coupling ratio of 10 mg of antibody to […] of particles. The Sensibeads used herein were additionally coated with streptavidin.
The ligand used was the biotinylated peptide aldehyde biotinyl-Ttds-D-Arg-Gly-Arg-H (B-r-G-R—H).
In the absence of an F Xa inhibitor, the ligand binds, via its biotin residue, to the streptavidin-coated Sensibeads and, via its peptide moiety, to the F Xa which itself binds to the antibody-coated Chemibeads, and a chemiluminescence signal is generated (see also FIG. 1).
10 μl of a reagent containing human F Xa (approx. 1000 IU/l) and fibrin polymerization inhibitor peptide glycine-proline-arginine-proline (10 mg/ml) were admixed with 2 μl of sample, 20 μl of Chemibeads (400 μg/ml) and 10 μl of the ligand (6 μM) and incubated for 5 minutes. After addition of 60 μl of Sensibeads (200 μg/ml) and incubation for 10 minutes, the mix was filled with water to 260 μl and the chemiluminescence signal was measured. As FIG. 9 indicates, the chemiluminescence signal is reduced as a function of the type and concentration of the direct F Xa and thrombin inhibitors metered in.

F Xa [2] = molecular target: T1, F Xa; conditions: Prasa et al. 1997; Perzborn 2009; read-out: binding constant for F Xa; cited from earlier work

chemiluminescence signal (F Xa [1]) | Compound | binding to thrombin, times more weakly than to F Xa (thrombin; Perzborn 2009) | binding constant for thrombin (thrombin; Prasa et al. 1997) | Ki (F Xa [2]) [µM]
inversely proportional | O=C(NC[C@H]1CN(c2ccc(N3CCOCC3=O)cc2)C(=O)O1)c1ccc(Cl)s1 [rivaroxaban] | up to 10 000 times | – | –
not reduced | hirudin | – | 2.7×10^−14 | –
not reduced | CC1CNc2c(cccc2S(=O)(=O)N[C@@H](CCCNC(=N)N)C(=O)N2CC[C@@H](C)C[C@@H]2C(=O)O)C1 (stereo partly drawn) [argatroban] | – | – | 210
